Data reported in PMC9960827, “Cloning and Characterization of Trypanosoma congolense and T. vivax Nucleoside Transporters Reveal the Potential of P1-Type Carriers for the Discovery of Broad-Spectrum Nucleoside-Based Therapeutics against Animal African Trypanosomiasis” (International Journal of Molecular Sciences, 2023).
Where “and” joins values, the source holds several entries; their conditions need not be identical. Identical values can stand only once. Like-named read-outs stand apart in the source and are kept apart here. Marks after values point to notes of the source that are not given here.

Legend:
[1] = target: T. congolense adenosine transporter; test: [3H]-adenosine uptake and its inhibition in T. congolense IL3000 bloodstream forms; assay type: cell-based, Trypanosoma congolense; settings: 0.05 µM [3H]-adenosine, 30 s; IC50 converted to Ki; read-out: Ki on the transport of [3H]-adenosine
Description: (§1) Uptake assays using radiolabeled trypanocides and/or nucleosides were carried out as described previously. Briefly, parasite cultures were harvested, washed twice in assay buffer (33 mM HEPES, 98 mM NaCl, 4.6 mM KCl, 0.5 mM CaCl2, 0.07 mM MgSO4, 5.8 mM NaH3PO4, 0.03 mM MgCl2, 23 mM NaHCO3, 14 mM D-glucose, pH 7.3), then resuspended and adjusted to a density of 1 × 10^8 cells/mL in assay buffer. The radiolabeled permeant in the presence or absence of different concentrations of potential inhibitors reconstituted in 100 μL assay buffer was deposited on top of 250 μL oil mix in microcentrifuge tubes; 1 × 10^7 parasites in 100 μL assay buffer were added to the tube and incubated for a pre-determined interval. The reaction was stopped by the addition of 1 mL of a high concentration of ice-cold unlabeled substrate in assay buffer (‘stop solution’) and centrifugation, or by immediate centrifugation at […] as appropriate. The microcentrifuge tubes were flash-frozen, and the bottom of each tube containing the cell pellet was cut off and transferred to a scintillation vial. Cell pellets were lysed in 2% SDS, after which scintillation fluid (Scintlogic U, Lablogic) was added, followed by overnight incubation in the dark. Scintillation was measured in a 300SL (Hidex) scintillation counter (Hidex). All the assays were conducted in triplicate and analysis was carried out using Microsoft Excel and GraphPad Prism. All kinetic parameters were obtained on at least 3 separate occasions.
(§2) The dose-dependent uptake assay allowed for the affinity of nucleoside analogs to different nucleoside transporters to be determined by measuring the extent to which the analogs compete with and inhibit the uptake of radiolabel adenosine. This allowed for the determination of biochemical parameters such as Km and Vmax through the application of the Michaelis–Menten equation V0 = Vmax([substrate]/([substrate] + Km)). The 50% Inhibitory Concentration (IC50) of the purines and pyrimidines and their analogs was determined from non-linear regression to sigmoid curves with variable slope (Prism 8), and the IC50 of the inhibitor and the Km of the labeled permeant were then used to calculate the inhibition constant (Ki) of the analogs through the Cheng–Prusoff equation: Ki = IC50/(1 + (L/Km)), where L denotes the radiolabel concentration. The calculated Ki was in turn used to determine the Gibbs free energy (ΔG^0) of the inhibitor–transporter interaction using the equation: ΔG^0 = -RTln(Ki), where R represents the gas constant and T symbolizes the absolute temperature in Kelvin [104].

TcoAT1 [2] = assay type: cell-based, Trypanosoma congolense
From the text: (§3) The information for the T. congolense adenosine transporter (TcoAT1) and four putative T. vivax nucleoside transporters was obtained in the TritrypDB (tritrypdb.org/tritrypdb) genome database. Primers were designed to flank each gene upstream of the 5′ end (forward) and downstream of the 3′ end (reverse) as described (primer sequences in Supplementary Table S2). Following amplification from the genomic DNA of T. congolense or T. vivax, DNA for each extracted gene was ligated into the pNUS-HcN expression vector doubly digested with NdeI using the NEBuilder kit according to the manufacturer’s instructions (New England Biolabs). Construct was transformed into competent E. coli cells, and ligation was confirmed by restriction enzyme digestion of isolated plasmid DNA followed by Sanger sequencing (Source BioScience, Nottingham, UK). Confirmed plasmids were then transfected into L. mexicana cell line in which both NT1 and NT2 were doubly knocked out (SUPKO) and derived from L. mexicana Cas9 [64] as described. Clones grown in medium containing 50 μg/mL neomycin (G418) were collected for further confirmation by PCR with genomic DNA using a forward primer of the transporter gene and a reverse primer of the plasmid.
as §1, §2

TvxNT3 = TvxNT3 (Trypanosoma vivax, UniProt F9WV62); test: cell-based; assay type: cell-based; settings: difference in ΔG0 relative to the parent purine (adenosine or inosine)
From the text: as §3, §1, §2

L. mexicana Cas9 = test: Resazurin drug sensitivity assay, LmexCas9; assay type: cell-based, Leishmania mexicana; settings: read-out: LmexCas9 EC50
Description: (§4) EC50 values were determined by plotting to an equation for a sigmoid curve with variable slope (GraphPad Prism 8). All values were the average of at least three independent determinations on different days.

L. mexicana SUPKO+TcoAT1 = test: microbe, parasite or virus in culture; assay type: cell-based, Leishmania mexicana; settings: for EC50: read-out: SUPKO+TcoAT1 EC50
Description: as §4

L. mexicana SUPKO+TvxNT3 = test: microbe, parasite or virus in culture; assay type: cell-based, Leishmania mexicana; settings: for EC50: read-out: SUPKO+TvxNT3 EC50
Description: as §4

L. mexicana SUPKO = test: microbe, parasite or virus in culture; assay type: cell-based, Leishmania mexicana; settings: for SUPKO RF (Cas9): Resistance Factor = EC50(SUPKO)/EC50(Cas9)
Description: as §4

T. congolense IL3000 [3] = test: Alamar Blue (resazurin) assay, T. congolense IL3000; assay type: cell-based, Trypanosoma congolense; settings: Trypanosoma congolense, read-out: T. congolense IL3000 EC50
Description: as §4

T. congolense 6C3 [4] = test: microbe, parasite or virus in culture; assay type: cell-based, Trypanosoma congolense; settings: for EC50: Trypanosoma congolense, diminazene resistant strain, resazurin, read-out: T. congolense 6C3 EC50; for T. congolense 6C3 RF: resistance factor = EC50 (test strain)/EC50(control strain)
Description: as §4

[5] = target: T. b. brucei P1 (TbP1/NT2); settings: cited from earlier work
T. vivax [6] = test system: T. vivax; parameters: method as in Mabille et al. [69]; settings: added for comparison only; ref Mabille et al. [69]; cited from earlier work
T. brucei TbAT1-KO = settings: cited from earlier work
T.b.b. B48 [7] = test: Alamar Blue (resazurin) assay, T. b. brucei B48; assay type: cell-based, Trypanosoma brucei brucei; settings: Trypanosoma brucei, read-out: T.b.b. B48 EC50
Description: as §4

T. evansi [8] = test: Alamar Blue (resazurin) assay, T. evansi; assay type: cell-based, Trypanosoma evansi; settings: Trypanosoma evansi; resazurin; read-out: T. evansi EC50
Description: as §4

T. equiperdum [9] = test: Alamar Blue (resazurin) assay, T. equiperdum; assay type: cell-based, Trypanosoma equiperdum; settings: Trypanosoma equiperdum; resazurin; read-out: T. equiperdum EC50
Description: as §4

[10] = Resazurin toxicity assay on human embryonic kidney cells; assay type: cell-based; settings: human
Description: as §4

[11] = test system: human embryonic kidney (HEK) cells; test: as above; assay type: cell-based; settings: for SI T. congolense: selectivity index = EC50 (HEK cells)/EC50 (T. congolense); for SI T. equiperdum: selectivity index = EC50 (HEK cells)/EC50 (T. equiperdum); for SI T. evansi: selectivity index = EC50 (HEK cells)/EC50 (T. evansi)
Description: as §4

TcoAT1 [12] = test: Uptake of [3H]-pentamidine and [3H]-diminazene in SUPKO+TcoAT1 versus SUPKO; assay type: cell-based, Trypanosoma congolense; settings: 25 nM [3H]-pentamidine or 50 nM [3H]-diminazene, SUPKO+TcoAT1 vs SUPKO
Description: as §1, with “All the assays were conducted in triplicate and analysis was carried out using Microsoft Excel and GraphPad Prism. All kinetic parameters were obtained on at least 3 separate occasions.” left out

T. vivax [13] = test: T. vivax EC50 (from Mabille et al.); assay type: cell-based, Trypanosoma vivax; settings: from Table 8 data
T. congolense IL3000 [14] = test system: T. congolense IL3000; parameters: method as in Hulpia et al. [38]; settings: values marked *; ref Hulpia et al. [38]; cited from earlier work
T. congolense 6C3 [15] = test system: T. congolense 6C3; parameters: method as in Hulpia et al. [38]; settings: values marked *; ref Hulpia et al. [38]; cited from earlier work
T.b.b. B48 [16] = test system: T.b.b. B48; parameters: method as in Hulpia et al. [38]; settings: compound marked *; ref Hulpia et al. [38]; cited from earlier work
T. evansi [17] = test system: T. evansi; parameters: method as in Hulpia et al. [38]; settings: compound marked *; ref Hulpia et al. [38]; cited from earlier work
T. equiperdum [18] = test system: T. equiperdum; parameters: method as in Hulpia et al. [38]; settings: compound marked *; ref Hulpia et al. [38]; cited from earlier work
[19] = Leishmania mexicana, read-out: SUPKO EC50, resazurin, promastigotes
[20] = Resistance Factor relative to SUPKO

Chain of TvxNT3 (F9WV62 entry or part of it): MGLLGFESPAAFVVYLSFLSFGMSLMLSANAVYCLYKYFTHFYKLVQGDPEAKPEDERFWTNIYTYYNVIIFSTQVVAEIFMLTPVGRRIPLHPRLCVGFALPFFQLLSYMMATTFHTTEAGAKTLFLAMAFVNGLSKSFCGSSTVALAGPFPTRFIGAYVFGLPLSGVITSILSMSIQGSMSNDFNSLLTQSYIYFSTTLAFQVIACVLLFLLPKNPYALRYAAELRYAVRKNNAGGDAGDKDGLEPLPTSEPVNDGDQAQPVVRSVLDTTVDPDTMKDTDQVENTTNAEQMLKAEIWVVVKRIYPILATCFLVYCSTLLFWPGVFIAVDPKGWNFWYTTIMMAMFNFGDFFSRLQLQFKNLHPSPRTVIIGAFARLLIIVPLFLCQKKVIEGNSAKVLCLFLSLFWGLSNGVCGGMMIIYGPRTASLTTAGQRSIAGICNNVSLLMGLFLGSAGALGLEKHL

Row | SMILES | EC50 (L. mexicana Cas9; Leishmania mexicana) | EC50 (L. mexicana SUPKO+TcoAT1; Leishmania mexicana) | EC50 (L. mexicana SUPKO+TvxNT3; Leishmania mexicana) | EC50 (L. mexicana SUPKO; [19]) | SUPKO RF (Cas9) (L. mexicana SUPKO) | EC50 (T. congolense IL3000 [3]; BSF, resazurin) | EC50 (T. congolense 6C3 [4]) | T. congolense 6C3 RF (T. congolense 6C3 [4]) | EC50 (T. vivax [6]) | EC50 (T.b.b. B48 [7]) | SI T. congolense [11] | SI T. equiperdum [11] | SI T. evansi [11] | also measured
1 | Nc1ncnc2c1ncn2[C@@H]1O[C@H](CO)C[C@H]1O [Cordycepin, 3′-deoxyadenosine] | 91600 ± 12900 nM | > 100000 nM | > 100000 nM | > 100000 nM | >1.09 | 2460 ± 420 nM | 2160 ± 440 nM | 0.88 | 120 ± 20 nM |  |  |  |  | Ki [1]: 12000 ± 2000 nM; fold difference in affinity compared to adenosine (TcoAT1 [2]): 10 fold; Ki (TcoAT1 [2]; 0.05 µM [3H]-adenosine, 10 s, IC50 converted to Ki, read-out: Ki on the transport of [3H]-adenosine): 4590 nM and 4600 nM; ΔG0 (TcoAT1 [2]; Gibbs free energy of binding, from Km or Ki): -7.29 kcal/mol; δ(ΔG0) (TcoAT1 [2]; loss of Gibbs free energy of binding relative to the parent nucleoside): 1.42 kcal/mol; δ(ΔG0) (TvxNT3): -1.07 kcal/mol; Ki ([5]; T. b. brucei bloodstream forms, read-out: Tbb P1 Ki): 210000 ± 48000 nM; Tbb P1 ΔG0 [5]: -5.02 kcal/mol; resistance of the TbAT1-KO strain (T. brucei TbAT1-KO): 17 fold
2 | Nc1ncnc2c1c(F)cn2[C@@H]1O[C@H](CO)[C@@H](O)[C@H]1O [FH3167, 7-deaza-7-fluoroadenosine] | 96 ± 9 nM | 7500 ± 900 nM | 57200 ± 6800 nM | 63400 ± 5500 nM | 660 | 450 ± 620 nM | 480 ± 100 nM | 1.06 | 38 ± 6 nM | 160 ± 30 nM | 1.1 | 15 | 2.7 | SUPKO+TcoAT1 RF (SUPKO) (L. mexicana SUPKO+TcoAT1; [20]): 8.48; SUPKO+TvxNT3 RF (SUPKO) (L. mexicana SUPKO+TvxNT3; [20]): 1.1; EC50 (T. evansi [8]): 180 ± 23 nM; EC50 (T. equiperdum [9]): 32 ± 7 nM; EC50 [10]: 490 ± 50 nM
3 | N=C(N)c1ccc(/N=N/Nc2ccc(C(=N)N)cc2)cc1 [Diminazene, reference compound] |  |  |  |  | 1.27 |  | 1320 ± 430 nM | 5.7 ^a |  | 340 ± 130 nM |  |  |  | EC50 (T. congolense IL3000 [3]): 230 ± 40 nM; effect of the expression of TcoAT1 on the uptake of the trypanocide (TcoAT1 [12]): no effect
4 | Nc1ncnc2c1c(-c1ccccn1)cn2[C@@H]1O[C@H](CO)[C@@H](O)[C@H]1O [TH1008] |  |  |  |  | >8.5 |  |  | 0.33 | 12900 ± 4400 nM |  | 110 | 303 | 466 | EC50 (L. mexicana Cas9; resazurin, promastigotes): 11700 ± 500 nM; EC50 (L. mexicana SUPKO+TcoAT1; resazurin, promastigotes): > 100000 nM; EC50 (L. mexicana SUPKO+TvxNT3; resazurin, promastigotes): > 100000 nM; EC50 (L. mexicana SUPKO; resazurin, promastigotes, read-out: SUPKO EC50): > 100000 nM; fold higher EC50 against T. vivax compared to T. congolense (T. vivax [13]): 10–165 fold; EC50 ([11]; resazurin, 96 well plates, read-out: HEK EC50): 18500 ± 1500 nM; EC50 (T. congolense IL3000 [14]): 170 ± 50 nM; EC50 (T. congolense 6C3 [15]): 56 ± 13 nM; EC50 (T.b.b. B48 [16]): 390 ± 30 nM; EC50 (T. evansi [17]): 40 ± 5 nM; EC50 (T. equiperdum [18]): 61 ± 5 nM
